The values that follow come from patent publication US12071425B2 (Genentech, Inc., priority 2018, dated 2024).

Counter-ions that a name gives are not always drawn.

In one series the target is kinase domain of IRE1 alpha (His-tagged kinase dead construct KR, AA G547-L977, D688N) (Homo sapiens (Human), UniProt O75460, D688N). Nature of the series: IRE1α TR-FRET competition binding assay. The settings on record: competition with Kinase Tracer 236, 0.1 μM; one hour at room temperature. An outline of the steps: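 Compound displacement of an ATP-site fluorescent tracer (0.1 μM final) measured by TR-FRET after 1 h at room temperature. Protein, a His-tagged D688N kinase/RNase construct from Sf9 cells (0.006 μM final), was pre-bound 1 h at 4° C to Eu anti-His antibody (0.002 μM) in pH 7.5 HEPES buffer.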
Sequence of kinase domain of IRE1 alpha (His-tagged kinase dead construct KR, AA G547-L977, D688N) (O75460 547-977 D688N): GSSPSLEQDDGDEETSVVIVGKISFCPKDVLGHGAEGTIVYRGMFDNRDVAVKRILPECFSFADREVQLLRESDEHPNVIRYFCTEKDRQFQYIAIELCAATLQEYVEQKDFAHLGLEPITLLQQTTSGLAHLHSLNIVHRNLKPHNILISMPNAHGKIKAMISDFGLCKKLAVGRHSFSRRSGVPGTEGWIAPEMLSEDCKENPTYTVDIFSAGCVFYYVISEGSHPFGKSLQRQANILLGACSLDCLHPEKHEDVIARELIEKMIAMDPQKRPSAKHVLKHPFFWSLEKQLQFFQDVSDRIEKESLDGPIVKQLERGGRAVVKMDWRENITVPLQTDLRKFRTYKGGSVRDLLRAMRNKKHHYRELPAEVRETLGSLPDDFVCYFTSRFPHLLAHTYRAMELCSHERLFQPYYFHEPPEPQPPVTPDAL
(In general: TR-FRET usually uses a lanthanide donor and a delayed reading to cut background.)
Turning to `Cn1ccc(CS(=O)(=O)Nc2c(F)cc(Oc3ncccc3-c3ccnc(N[C@H]4CCCNC4)n3)c(F)c2F)n1` [Compound 236, (S)-1-(1-methyl-1H-pyrazol-3-yl)-N-(2,3,6-trifluoro-4-(3-(2-(piperidin-3-ylamino)pyrimidin-4-yl)pyridin-2-yloxy)phenyl)methanesulfonamide], the IC50 worked out at 9 nM.
Same read-out and setting: the same measure for `CCCS(=O)(=O)Nc1cc(F)c(Oc2ncccc2-c2ccnc(N[C@H]3CC[C@H](N)CC3)n2)c(Cl)c1` [Compound 121, N-(4-((3-(2-(((1r,4r)-4-Aminocyclohexyl)amino)pyrimidin-4-yl)pyridin-2-yl)oxy)-3-chloro-5-fluorophenyl)propane-1-sulfonamide hydrochloride]: 26 nM; for `O=S(=O)(Cc1ccccc1Cl)Nc1c(F)cc(Oc2ncccc2-c2ccnc(N[C@@H]3CNC[C@@H](F)C3)n2)c(F)c1F` [Compound 352, 1-(2-Chlorophenyl)-N-[2,3,6-trifluoro-4-[[3-[2-[[(3S,5S)-5-fluoro-3-piperidyl]amino]pyrimidin-4-yl]-2-pyridyl]oxy]phenyl]methanesulfonamide]: 0.2 nM; for `Cc1cc(Oc2ncccc2-c2ccnc(N[C@H]3CCCNC3)n2)c(F)c(F)c1NS(=O)(=O)Cc1ccccc1` [Compound 160, (S)-N-(2,3-difluoro-6-methyl-4-((3-(2-(piperidin-3-ylamino)pyrimidin-4-yl)pyridin-2-yl)oxy)phenyl)-1-phenylmethanesulfonamide]: 5.4 nM.
The same measure, in the same setting: the same measure for `O=S(=O)(Cc1ccccc1)Nc1ccc(Oc2ncccc2-c2ccnc(N[C@@H]3CNC[C@@H](F)C3)n2)c(F)c1F` [Compound 112, N-(2,3-difluoro-4-((3-(2-(((3S,5S)-5-fluoropiperidin-3-yl)amino)pyrimidin-4-yl)pyridin-2-yl)oxy)phenyl)-1-phenylmethanesulfonamide]: 4.6 nM; for `Cc1ccc(C(=O)NS(=O)(=O)c2ccccc2Cl)cc1Oc1ncccc1-c1ccnc(N[C@H]2CCCNC2)n1` [Compound 103, (S)-N-((2-chlorophenyl)sulfonyl)-4-methyl-3-((3-(2-(piperidin-3-ylamino)pyrimidin-4-yl)pyridin-2-yl)oxy)benzamide]: 30 nM; for `Cc1ccc(CS(=O)(=O)Nc2c(F)cc(Oc3ncccc3-c3ccnc(N[C@@H]4CNC[C@@H](F)C4)n3)c(F)c2F)c(F)c1` [Compound 384, 1-(2-Fluoro-4-methylphenyl)-N-(2,3,6-trifluoro-4-((3-(2-(((3S,5S)-5-fluoropiperidin-3-yl)amino)pyrimidin-4-yl)pyridin-2-yl)oxy)phenyl)methanesulfonamide]: 0.3 nM.
Same read-out and setting: the same measure for `O=S(=O)(Cc1ccccc1F)Nc1c(F)cc(Oc2ncccc2-c2ccnc(N[C@@H]3CNC[C@@H](F)C3)n2)c(Cl)c1F` [Compound 332, N-(3-Chloro-2,6-difluoro-4-((3-(2-(((3S,5S)-5-fluoropiperidin-3-yl)amino)pyrimidin-4-yl)pyridin-2-yl)oxy)phenyl)-1-(2-fluorophenyl)methanesulfonamide]: 56 nM.
Take `O=S(=O)(CC1CCCCC1)Nc1ccc(Oc2ncccc2-c2ccnc(N[C@H]3CCCNC3)n2)c(F)c1F` [Compound 145, (S)-1-Cyclohexyl-N-(2,3-difluoro-4-((3-(2-(piperidin-3-ylamino)pyrimidin-4-yl)pyridin-2-yl)oxy)phenyl)methanesulfonamide hydrochloride]: the half-maximal inhibitory concentration (IC50) was found to be 7.8 nM.
As to `O=S(=O)(Cc1ccc(C(F)(F)F)nc1)Nc1c(F)cc(Oc2ncccc2-c2ccnc(N[C@@H]3CNC[C@@H](F)C3)n2)c(F)c1F` [Compound 254, N-(2,3,6-Trifluoro-4-((3-(2-(((3S,5S)-5-fluoropiperidin-3-yl)amino)pyrimidin-4-yl)pyridin-2-yl)oxy)phenyl)-1-(6-(trifluoromethyl)pyridin-3-yl)methanesulfonamide], the IC50 stood at 0.62 nM.
For the molecule `O=C(Nc1ccc(Oc2ncccc2-c2ccnc(N[C@H]3CCCNC3)n2)c(F)c1F)C1CC12CC2` (stereo partly drawn) [Compound 151, N-(2,3-difluoro-4-((3-(2-(((S)-piperidin-3-yl)amino)pyrimidin-4-yl)pyridin-2-yl)oxy)phenyl)spiro[2.2]pentane-1-carboxamide hydrochloride], the IC50 was 84 nM.

Another series has as its system cells.
Assay: not given
The settings on record: high levels of 4μ8C; cited from earlier work.
With `Cc1cc(=O)oc2c(C=O)c(O)ccc12` [Compound 4μ8C], the toxicity in cells result is listed as “no measurable toxicity”.

A word on the IC50: it is the point on the concentration scale where inhibition reaches its midpoint.
